One block for each molecule: values may come before it.
Columns and labels:
[1] = system: Rat; assay: concentration in plasma after dosing; details: 2 h; dosed: Wyeth-14643; 2.0 mg/kg; iv; Male; Sprague-Dawley
[2] = system: Rat; assay: concentration in plasma after dosing; details: dosed: Wyeth-14643, 5.0 mg/kg, oral, Male, Sprague-Dawley
[3] = system: Rat; assay: concentration in plasma after dosing; details: 6 h; dosed: Bis 2-Chloroethoxy Methane; 20 mg/kg; iv; Female; F344
[4] = system: Rat; assay: concentration in thymus after dosing; details: 8 h; dosed: Bis 2-Chloroethoxy Methane; 20 mg/kg; iv; Female; Harlan Sprague-Dawley
[5] = system: Rat; assay: concentration in heart after dosing; details: 1 h; dosed: Bis 2-Chloroethoxy Methane; 20 mg/kg; iv; Female; F344
[6] = system: Rat; assay: concentration in thymus after dosing; details: 20 min; dosed: Bis 2-Chloroethoxy Methane; 20 mg/kg; iv; Male; F344
[7] = system: Rat; assay: concentration in plasma after dosing; details: dosed: Bis 2-Chloroethoxy Methane, 40 mg/kg, iv, Male, Harlan Sprague Dawley
[8] = system: Rat; assay: concentration in kidney after dosing; details: 3 h; dosed: Fluorotelomer alcohol 8+2; 80 mg/kg; oral; Female; Harlan Sprague Dawley
[9] = system: Rat; assay: concentration in plasma after dosing; details: dosed: Fluorotelomer alcohol 8+2, 12 mg/kg, oral, Male, Harlan Sprague Dawley
[10] = system: Rat; assay: concentration in kidney after dosing; details: 1 h; dosed: Fluorotelomer alcohol 8+2; 24 mg/kg; oral; Male; Harlan Sprague Dawley
[11] = system: Rat; assay: concentration in plasma after dosing; details: 10 min; dosed: Di-n-butyl phthalate; 50 mg/kg; oral; Male; Sprague-Dawley
[12] = system: Rat; assay: concentration in plasma after dosing; details: 10 min; dosed: Di-n-butyl phthalate; 20 mg/kg; iv; Male; Sprague-Dawley
[13] = system: Rat; assay: concentration in brain after dosing; details: 864 h; dosed: Perfluorodecanoic acid; 10 mg/kg; oral; Female; Harlan Sprague Dawley
[14] = system: Rat; assay: concentration in kidney after dosing; details: 3360 h; dosed: Perfluorodecanoic acid; 10 mg/kg; oral; Male; Harlan Sprague Dawley
[15] = system: Rat; assay: concentration in plasma after dosing; details: dosed: Perfluorodecanoic acid, 2 mg/kg, iv, Male, F344
[16] = system: Rat; assay: concentration in plasma after dosing; details: dosed: Perfluorodecanoic acid, 2 mg/kg, iv, Male, F344; remark: listed apart in the source
[17] = system: Rat; assay: concentration in brain after dosing; details: 24 h; dosed: Perfluorodecanoic acid; 10 mg/kg; oral; Male; Harlan Sprague Dawley
[18] = system: Rat; assay: concentration in kidney after dosing; details: 24 h; dosed: Perfluorodecanoic acid; 10 mg/kg; oral; Male; Harlan Sprague Dawley
[19] = system: Rat; assay: concentration in kidney after dosing; details: 1848 h; dosed: Perfluorodecanoic acid; 10 mg/kg; oral; Male; Harlan Sprague Dawley
[20] = system: Rat; assay: concentration in plasma after dosing; details: 18 h; dosed: Primidone; 80 mg/kg; oral; Female; F344
[21] = system: Rat; assay: concentration in plasma after dosing; details: 0.5 h; dosed: Primidone; 80 mg/kg; oral; Female; Harlan Sprague-Dawley
[22] = system: Rat; assay: concentration in plasma after dosing; details: 9 h; dosed: Primidone; 80 mg/kg; oral; Male; F344
[23] = system: Rat; assay: concentration in plasma after dosing; details: 3 h; dosed: Thiodiglycolic Acid; 20 mg/kg; iv; Male; Harlan Sprague Dawley
[24] = system: Rat; assay: concentration in liver after dosing; details: 40 min; dosed: Thiodiglycolic Acid; 20 mg/kg; iv; Female; Harlan Sprague Dawley
[25] = system: Rat; assay: concentration in plasma after dosing; details: 1 h; dosed: Thiodiglycolic Acid; 20 mg/kg; iv; Male; Harlan Sprague Dawley
[26] = system: Rat; assay: concentration in heart after dosing; details: 3 h; dosed: Thiodiglycolic Acid; 20 mg/kg; iv; Female; Harlan Sprague Dawley
[27] = system: Rat; assay: concentration in thymus after dosing; details: 1 h; dosed: Thiodiglycolic Acid; 20 mg/kg; iv; Female; Harlan Sprague Dawley
[28] = system: Rat; assay: concentration in liver after dosing; details: 10 h; dosed: Thiodiglycolic Acid; 20 mg/kg; iv; Female; Harlan Sprague Dawley
[29] = system: Rat; assay: concentration in thymus after dosing; details: 3 h; dosed: Thiodiglycolic Acid; 20 mg/kg; iv; Male; Harlan Sprague Dawley
[30] = system: Rat; assay: concentration in plasma after dosing; details: 40 min; dosed: Thiodiglycolic Acid; 20 mg/kg; iv; Male; Harlan Sprague Dawley
[31] = system: Rat; assay: concentration in plasma after dosing; details: 40 min; dosed: Thiodiglycolic Acid; 20 mg/kg; iv; Female; Harlan Sprague Dawley
[32] = system: Rat; assay: concentration in heart after dosing; details: 40 min; dosed: Thiodiglycolic Acid; 20 mg/kg; iv; Male; Harlan Sprague Dawley
[33] = system: Rat; assay: concentration in heart after dosing; details: 6.667 h; dosed: Thiodiglycolic Acid; 20 mg/kg; iv; Female; Harlan Sprague Dawley
[34] = system: Rat; assay: concentration in plasma after dosing; details: 10 h; dosed: Thiodiglycolic Acid; 20 mg/kg; iv; Male; F344
[35] = system: Rat; assay: concentration in liver after dosing; details: 10 min; dosed: Thiodiglycolic Acid; 20 mg/kg; iv; Male; F344
[36] = system: Rat; assay: concentration in plasma after dosing; details: 20 min; dosed: Thiodiglycolic Acid; 20 mg/kg; iv; Female; Harlan Sprague Dawley
[37] = system: Rat; assay: concentration in liver after dosing; details: 8 h; dosed: Thiodiglycolic Acid; 20 mg/kg; iv; Female; Harlan Sprague Dawley
[38] = system: Rat; assay: concentration in liver after dosing; details: 10 min; dosed: Thiodiglycolic Acid; 20 mg/kg; iv; Female; Harlan Sprague Dawley
[39] = system: Rat; assay: concentration in plasma after dosing; details: 5 min; dosed: dichloroacetic acid; 10 mg/kg; iv; Male; F344

concentration in plasma [1]: 0.67 µg/mL
concentration in plasma ([2]; 5 min): 1.33 µg/mL
concentration in plasma ([2]; 8 h): 0.155 µg/mL
SMILES: Cc1cccc(Nc2cc(Cl)nc(SCC(=O)O)n2)c1C

SMILES: ClCCOCOCCCl [Bis 2-Chloroethoxy Methane]
concentration in plasma [3]: 17.6 ng/mL
concentration in thymus [4]: 13.2 ng/g
concentration in heart [5]: 1380 ng/g
concentration in thymus [6]: 25400 ng/g
concentration in plasma ([7]; 40 min): 6610 ng/mL
concentration in plasma ([7]; 8 h): 15.5 ng/mL

concentration in kidney [8]: 5170 ng/g
concentration in plasma ([9]; 1 h): 329 ng/mL
concentration in plasma ([9]; 24 h): 0.982 ng/mL
concentration in kidney [10]: 1140 ng/g
SMILES: OCCC(F)(F)C(F)(F)C(F)(F)C(F)(F)C(F)(F)C(F)(F)C(F)(F)C(F)(F)F [Fluorotelomer alcohol 8+2]

SMILES: CCCCOC(=O)c1ccccc1C(=O)O [Mono-n-butyl phthalate]
concentration in plasma [11]: 26.1 µg/mL
concentration in plasma [12]: 28.8 µg/mL

SMILES: O=C(O)C(F)(F)C(F)(F)C(F)(F)C(F)(F)C(F)(F)C(F)(F)C(F)(F)C(F)(F)C(F)(F)F [Perfluorodecanoic acid]
concentration in brain [13]: 1010 ng/g
concentration in kidney [14]: 1240 ng/g
concentration in plasma ([15]; 5 min): 7130 ng/mL
concentration in plasma ([15]; 192 h): 3040 ng/mL
concentration in plasma ([16]; 1 h): 6390 ng/mL
concentration in plasma ([16]; 528 h): 2520 ng/mL
concentration in plasma ([16]; 3360 h): 267 ng/mL
concentration in brain [17]: 2840 ng/g
concentration in kidney [18]: 29300 ng/g
concentration in kidney [19]: 6050 ng/g

SMILES: CCC1(c2ccccc2)C(=O)NC(=O)NC1=O [Phenobarbital]
concentration in plasma [20]: 1.9 µg/mL
concentration in plasma [21]: 1.48 µg/mL
concentration in plasma [22]: 6.8 µg/mL

SMILES: O=C(O)CSCC(=O)O [Thiodiglycolic Acid]
concentration in plasma [23]: 696 ng/mL
concentration in liver [24]: 10000 ng/g
concentration in plasma [25]: 1580 ng/mL
concentration in heart [26]: 620 ng/g
concentration in thymus [27]: 2580 ng/g
concentration in liver [28]: 1650 ng/g
concentration in thymus [29]: 1430 ng/g
concentration in plasma [30]: 3090 ng/mL
concentration in plasma [31]: 4780 ng/mL
concentration in heart [32]: 2020 ng/g
concentration in heart [33]: 246 ng/g
concentration in plasma [34]: 304 ng/mL
concentration in liver [35]: 160000 ng/g
concentration in plasma [36]: 11700 ng/mL
concentration in liver [37]: 45300 ng/g
concentration in liver [38]: 10200 ng/g

SMILES: O=C(O)C(Cl)Cl [dichloroacetic acid]
concentration in plasma [39]: 15.1 µg/mL

Reference: EPA's CvTdb concentration-time database
